Reference: PubChem BioAssay (NCI)
Several values for one entry are separate records, joined by “and”; a condition that tells them apart may be missing. Equal entries are not always repeated.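 48-hour exposure; five concentrations; linearly interpolated endpoints. GI50: concentration for 50% inhibition of growth. TGI: total growth inhibition.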

Legend:
Test in all cases: growth of human tumour cells (NCI), 48 h
786-0 renal = system: 786-0 renal
TK-10 renal = system: TK-10 renal
NCI/ADR-RES ovarian = system: NCI/ADR-RES ovarian
MALME-3M melanoma = system: MALME-3M melanoma
IGROV1 ovarian = system: IGROV1 ovarian
K-562 leukemia = system: K-562 leukemia
SNB-75 CNS = system: SNB-75 CNS
COLO 205 colon = system: COLO 205 colon
HCC-2998 colon = system: HCC-2998 colon
HOP-62 NSCLC = system: HOP-62 NSCLC
NCI-H23 lung = system: NCI-H23 lung
SR leukemia = system: SR leukemia
HT29 colon = system: HT29 colon
MDA-N = system: MDA-N
HS 578T breast = system: HS 578T breast
SK-OV-3 ovarian = system: SK-OV-3 ovarian
SK-MEL-5 melanoma = system: SK-MEL-5 melanoma
SF-539 CNS = system: SF-539 CNS
OVCAR-3 ovarian = system: OVCAR-3 ovarian
NCI-H460 lung = system: NCI-H460 lung
LOX IMVI melanoma = system: LOX IMVI melanoma
DU-145 prostate = system: DU-145 prostate
SNB-19 CNS = system: SNB-19 CNS
HCT-15 colon = system: HCT-15 colon
KM12 colon = system: KM12 colon
SN12C renal = system: SN12C renal
CCRF-CEM leukemia = system: CCRF-CEM leukemia
UACC-62 melanoma = system: UACC-62 melanoma
CAKI-1 renal = system: CAKI-1 renal
HOP-92 NSCLC = system: HOP-92 NSCLC
RPMI-8226 leukemia = system: RPMI-8226 leukemia
SF-295 CNS = system: SF-295 CNS
PC-3 prostate = system: PC-3 prostate
SK-MEL-28 melanoma = system: SK-MEL-28 melanoma
M14 melanoma = system: M14 melanoma
MCF7 breast = system: MCF7 breast
MDA-MB-435 = system: MDA-MB-435
HCT-116 colon = system: HCT-116 colon
HL-60(TB) leukemia = system: HL-60(TB) leukemia
MDA-MB-231 breast = system: MDA-MB-231 breast
OVCAR-5 ovarian = system: OVCAR-5 ovarian
ACHN renal = system: ACHN renal
BT-549 breast = system: BT-549 breast
UO-31 renal = system: UO-31 renal
SW-620 colon = system: SW-620 colon
SF-268 CNS = system: SF-268 CNS
SK-MEL-2 melanoma = system: SK-MEL-2 melanoma
RXF 393 renal = system: RXF 393 renal
A549 NSCLC = system: A549 NSCLC
U251 CNS = system: U251 CNS
T-47D breast = system: T-47D breast
MOLT-4 leukemia = system: MOLT-4 leukemia
UACC-257 melanoma = system: UACC-257 melanoma
OVCAR-4 ovarian = system: OVCAR-4 ovarian
NCI-H226 lung = system: NCI-H226 lung
A498 renal = system: A498 renal
EKVX NSCLC = system: EKVX NSCLC
NCI-H522 lung = system: NCI-H522 lung
OVCAR-8 ovarian = system: OVCAR-8 ovarian

With COC1OC(COC(=O)NCCCCC(=O)C(F)(F)C(F)(F)C(F)(F)C(F)(F)C(F)(F)C(F)(F)C(F)(F)F)C(O)C(O)C1O (stereo unspecified) the TGI (786-0 renal) was 31.4 µM and 30.1 µM, the TGI (TK-10 renal) was 30 µM and 32 µM and the TGI (NCI/ADR-RES ovarian) was 61.8 µM and > 100 µM. The TGI (MALME-3M melanoma) was 44.3 µM and 47.3 µM, the TGI (IGROV1 ovarian) was 30.9 µM and 27.4 µM and the TGI (K-562 leukemia) was 36.8 µM and 37.5 µM. The TGI (SNB-75 CNS) was 29.3 µM and 27.6 µM, the TGI (COLO 205 colon) was 45 µM and 39.7 µM and the TGI (HCC-2998 colon) was 36.5 µM and 37.5 µM. The TGI (HOP-62 NSCLC) was 32.1 µM and 30.1 µM, the TGI (NCI-H23 lung) was 40.4 µM and 34.1 µM and the TGI (SR leukemia) was greater than 100 µM. The TGI (HT29 colon) was 27.4 µM and 35 µM, the TGI (MDA-N) was 51.9 µM and 61.3 µM and the TGI (HS 578T breast) was 43.8 µM and 33.7 µM. For the same molecule, the TGI (SK-OV-3 ovarian) was 29.2 µM and 27.2 µM, the TGI (SK-MEL-5 melanoma) was 25.8 µM and 24.3 µM and the TGI (SF-539 CNS) was 29.5 µM and 34.2 µM. The TGI (OVCAR-3 ovarian) was 29.2 µM and 28.1 µM, the TGI (NCI-H460 lung) was 36.3 µM and 49.5 µM and the TGI (LOX IMVI melanoma) was 30.2 µM and 27.9 µM. The GI50 (DU-145 prostate) was 34.8 µM and 4.86 µM, the TGI (DU-145 prostate) was > 100 µM and 29.9 µM and the TGI (SNB-19 CNS) was 34 µM and 34.1 µM. For the same molecule, the TGI (HCT-15 colon) was 33.1 µM and 38.3 µM, the TGI (KM12 colon) was 37.1 µM and 48.7 µM and the TGI (SN12C renal) was 40.2 µM and 43.5 µM. For the same molecule, the GI50 (CCRF-CEM leukemia) was 16.4 µM and 7.62 µM, the TGI (CCRF-CEM leukemia) was 44 µM and 37.4 µM and the TGI (UACC-62 melanoma) was 26.6 µM and 27.5 µM. The TGI (CAKI-1 renal) was 32.9 µM and 30 µM, the GI50 (HOP-92 NSCLC) was 14.2 µM and 2.27 µM and the TGI (HOP-92 NSCLC) was 28.6 µM and 15.6 µM. For the same molecule, the TGI (RPMI-8226 leukemia) was greater than 100 µM, the TGI (SF-295 CNS) was 44.8 µM and 44.2 µM and the TGI (PC-3 prostate) was 25.9 µM and 26.5 µM. The TGI (SK-MEL-28 melanoma) was 31 µM and 30.5 µM, the TGI (M14 melanoma) was 29.7 µM and 29.4 µM and the TGI (MCF7 breast) was 33.6 µM and 33.4 µM. For the same molecule, the TGI (MDA-MB-435) was 32.2 µM and 31.7 µM, the TGI (HCT-116 colon) was 39.4 µM and 31.9 µM and the GI50 (HL-60(TB) leukemia) was 24.9 µM. The TGI (HL-60(TB) leukemia) was greater than 100 µM, the TGI (MDA-MB-231 breast) was 42.3 µM and 40.2 µM and the TGI (OVCAR-5 ovarian) was 32.9 µM and 32.3 µM. The TGI (ACHN renal) was 31.8 µM and 29.9 µM, the TGI (BT-549 breast) was 31.4 µM and 31.9 µM and the TGI (UO-31 renal) was 30.5 µM and 30.8 µM. The TGI (SW-620 colon) was 31.9 µM and 31.7 µM, the TGI (SF-268 CNS) was 30.8 µM and 37.1 µM and the TGI (SK-MEL-2 melanoma) was 40.1 µM and 40.3 µM. The TGI (RXF 393 renal) was 26.4 µM and 30.2 µM, the TGI (A549 NSCLC) was 36.1 µM and 31 µM and the TGI (U251 CNS) was 39.7 µM and 24.6 µM. The TGI (T-47D breast) was 39.1 µM and 32.5 µM, the GI50 (MOLT-4 leukemia) was 12.5 µM and 4.13 µM and the TGI (MOLT-4 leukemia) was 31.7 µM and 23.1 µM. The TGI (UACC-257 melanoma) was 36.2 µM and 37.7 µM and the TGI (OVCAR-4 ovarian) was 35.3 µM and 28.5 µM.

Cc1nn(CN2CCN(C)CC2)c(=S)n1/N=C/c1ccc(-c2ccc(Cl)cc2Cl)o1 was tested, and the TGI (786-0 renal) was greater than 100 µM, the TGI (TK-10 renal) was greater than 100 µM and the TGI (NCI/ADR-RES ovarian) was greater than 100 µM. It also gave a TGI (MALME-3M melanoma) greater than 100 µM, a TGI (IGROV1 ovarian) greater than 100 µM and a TGI (K-562 leukemia) greater than 100 µM. For the same molecule, the TGI (COLO 205 colon) was greater than 100 µM, the TGI (HCC-2998 colon) was greater than 100 µM and the TGI (HOP-62 NSCLC) was greater than 100 µM. The TGI (NCI-H226 lung) was 95.2 µM, the TGI (A498 renal) was 56.8 µM and the TGI (NCI-H23 lung) was greater than 100 µM. The TGI (SR leukemia) was greater than 100 µM, the TGI (HT29 colon) was greater than 100 µM and the TGI (MDA-N) was greater than 100 µM. For the same molecule, the TGI (HS 578T breast) was greater than 100 µM, the TGI (SK-OV-3 ovarian) was greater than 100 µM and the TGI (SK-MEL-5 melanoma) was greater than 100 µM. For the same molecule, the TGI (SF-539 CNS) was greater than 100 µM, the TGI (OVCAR-3 ovarian) was greater than 100 µM and the TGI (EKVX NSCLC) was 88.8 µM. For the same molecule, the TGI (LOX IMVI melanoma) was greater than 100 µM, the TGI (DU-145 prostate) was greater than 100 µM and the TGI (SNB-19 CNS) was greater than 100 µM. For the same molecule, the TGI (HCT-15 colon) was greater than 100 µM, the TGI (KM12 colon) was greater than 100 µM and the TGI (SN12C renal) was greater than 100 µM. The TGI (UACC-62 melanoma) was greater than 100 µM, the TGI (HOP-92 NSCLC) was greater than 100 µM and the TGI (PC-3 prostate) was greater than 100 µM. For the same molecule, the TGI (SK-MEL-28 melanoma) was greater than 100 µM, the TGI (M14 melanoma) was greater than 100 µM and the TGI (MCF7 breast) was greater than 100 µM. For the same molecule, the TGI (MDA-MB-435) was greater than 100 µM, the TGI (HCT-116 colon) was greater than 100 µM and the TGI (HL-60(TB) leukemia) was greater than 100 µM. For the same molecule, the TGI (MDA-MB-231 breast) was greater than 100 µM, the TGI (OVCAR-5 ovarian) was greater than 100 µM and the TGI (ACHN renal) was greater than 100 µM. The TGI (BT-549 breast) was greater than 100 µM, the TGI (UO-31 renal) was greater than 100 µM and the TGI (SW-620 colon) was greater than 100 µM. The TGI (SF-268 CNS) was greater than 100 µM, the TGI (SK-MEL-2 melanoma) was greater than 100 µM and the TGI (A549 NSCLC) was greater than 100 µM. It also gave a TGI (U251 CNS) greater than 100 µM, a TGI (T-47D breast) greater than 100 µM and a TGI (MOLT-4 leukemia) of 98.2 µM. It also gave a TGI (NCI-H522 lung) greater than 100 µM, a TGI (UACC-257 melanoma) greater than 100 µM and a TGI (OVCAR-8 ovarian) greater than 100 µM. It also gave a TGI (OVCAR-4 ovarian) greater than 100 µM.
